Laboratory results as given in BindingDB's records for patent US10780090 (Millennium Pharmaceuticals, Inc., 2020).
pIC50: −log10 of the molar value.

Target: T1, SUMO-activating enzyme subunit 2 (Human, UniProt Q9UBT2)
T1 sequence (Q9UBT2 whole entry): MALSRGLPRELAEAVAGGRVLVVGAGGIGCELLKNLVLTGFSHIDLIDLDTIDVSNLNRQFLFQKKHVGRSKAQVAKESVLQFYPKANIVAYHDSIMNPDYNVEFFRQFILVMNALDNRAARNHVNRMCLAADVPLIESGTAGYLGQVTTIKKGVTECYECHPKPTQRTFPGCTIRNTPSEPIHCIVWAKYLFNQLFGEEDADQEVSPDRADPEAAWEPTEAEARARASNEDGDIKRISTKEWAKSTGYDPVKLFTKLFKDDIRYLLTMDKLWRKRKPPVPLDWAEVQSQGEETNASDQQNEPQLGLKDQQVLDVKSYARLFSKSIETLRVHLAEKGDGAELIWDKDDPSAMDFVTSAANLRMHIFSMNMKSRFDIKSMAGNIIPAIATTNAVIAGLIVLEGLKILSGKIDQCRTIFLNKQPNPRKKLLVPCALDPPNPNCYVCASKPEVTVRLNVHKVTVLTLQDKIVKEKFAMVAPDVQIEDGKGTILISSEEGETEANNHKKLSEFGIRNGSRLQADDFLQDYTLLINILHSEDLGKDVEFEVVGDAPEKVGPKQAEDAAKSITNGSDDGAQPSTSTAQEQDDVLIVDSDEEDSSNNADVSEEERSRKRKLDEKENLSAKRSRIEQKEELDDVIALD
Test: Enzyme Assay
Protocol: After incubation for 2 hours at 24° C., quantification of FRET is performed on the Pherostar (BMG Labtech). Percentage inhibition values at a single concentration or enzyme inhibition (IC50) values are determined from those curves. One skilled in the art will appreciate that the values generated either as percentage inhibition at a single concentration or IC50 values are subject to experimental variation.

In the case of `Cc1sc(C(=O)c2cncnc2N[C@@H]2C[C@H](COS(N)(=O)=O)[C@@H](O)C2)cc1[S@+]([O-])c1cccc(C(F)(F)F)c1` [US10780090, Compound I-69], the pIC50 was > 8.00.

With `CN1Cc2ccccc2[C@@H]1c1cc(C(=O)c2cncnc2N[C@@H]2C[C@H](COS(N)(=O)=O)[C@@H](O)C2)sc1Cl` [US10780090, Compound I-304] the pIC50 was > 8.00.

`CN(c1ncncc1C(=O)c1cc([C@@H]2OCCc3ccc(Cl)cc32)c(CO)s1)[C@@H]1C[C@H](COS(N)(=O)=O)[C@@H](O)C1` [US10780090, Compound I-366] was tested, and the pIC50 was > 8.00.

Work on `Cc1sc(C(=O)c2cncnc2N[C@@H]2C[C@H](COS(N)(=O)=O)[C@@H](O)C2)cc1[C@@H]1OCC(F)(F)c2ncccc21` [US10780090, Compound I-331] yielded a pIC50 of 6.00 to 7.00.

For `Cc1sc(C(=O)c2cncnc2N[C@@H]2C[C@H](COS(N)(=O)=O)[C@@H](O)C2)cc1[C@@H]1OCC(F)(F)c2ccc(Cl)cc21` [US10780090, Compound I-288], the pIC50 was > 8.00.

For `CC(C)(C)OC(=O)N1CCc2ccc(Cl)cc2[C@@H]1c1cc(C(=O)c2cncnc2N[C@@H]2C[C@H](COS(N)(=O)=O)[C@@H](O)C2)sc1Cl` [US10780090, Compound I-336], the pIC50 was 6.00 to 7.00.

In the case of `NS(=O)(=O)OC[C@H]1C[C@@H](Nc2ncncc2C(=O)c2cc(Cc3cccc(Br)c3)c(Cl)s2)C[C@@H]1O` [US10780090, Compound I-112], the pIC50 was > 8.00.

`CC(C)(C)OC(=O)N1CCc2ccc(Cl)cc2[C@@H]1c1csc(C(=O)c2cncnc2N[C@@H]2C[C@H](COS(N)(=O)=O)[C@@H](O)C2)c1` [US10780090, Compound I-334] showed a pIC50 of 6.00 to 7.00.

In the case of `NS(=O)(=O)OC[C@H]1C[C@@H](Nc2ncncc2C(=O)c2cc(Cc3cccc(Br)n3)c(Cl)s2)C[C@@H]1O` [US10780090, Compound I-46], the pIC50 was > 8.00.

`C[C@@]1(c2csc(C(=O)c3cncnc3N[C@@H]3C[C@H](COS(N)(=O)=O)[C@@H](O)C3)c2)NCCc2ccccc21` [US10780090, Compound I-318] was tested, and the pIC50 was > 8.00.

`Cc1sc(C(=O)c2cncnc2N[C@@H]2C[C@H](COS(N)(=O)=O)[C@@H](O)C2)cc1[C@@H]1OCCc2ccc(C#N)cc21` [US10780090, Compound I-313] was tested, and the pIC50 was > 8.00.

`CN1Cc2ccccc2[C@@H]1c1csc(C(=O)c2cncnc2N[C@@H]2C[C@H](COS(N)(=O)=O)[C@@H](O)C2)c1` [US10780090, Compound I-308] was tested, and the pIC50 was > 8.00.
